Results from patent US20260242416A1, “ANTIMICROBIAL PEPTIDES” (priority 2023, published 2026).
Where a SMILES comes first, the peptide text is derived from it.

Legend:
S. aureus ATCC 29213 = format: cell-based, Staphylococcus aureus; conditions: ATCC 29213
Experimental: (§1) Bacteria were grown overnight at 37° C. in Mueller-Hinton Broth (MHB; Sigma-Aldrich, St. Louis. MO, USA) in a shaking incubator and aliquoted into cryovials with a 50% glycerol solution in a 1:1 ratio. No additives were added to the MHB during the growth of bacterial isolates. Glycerol stocks were stored at −80° C.
(§2) The antimicrobial activity of the putative AMPs was determined by a broth microdilution assay as described by the Clinical and Laboratory Standards Institute, with the published adaptations for testing of cationic peptides. Escherichia coli 25922 and Staphylococcus aureus 29213 isolates were purchased from the American Type Culture Collection (ATCC; Manassas, VA, USA). A human clinical isolate of Salmonella enterica serovar Enteritidis was provided by the BC Centre for Disease Control. Bacteria from stocks stored at −80° C. were streaked onto nonselective Columbia blood agar with 5% sheep blood (Oxoid) and incubated overnight at 37° C. Next, 2-4 colonies were streaked onto a new agar plate to ensure uniform health of colonies used in the broth microdilution assay. Isolated colonies were suspended in MHB and the optical density was measured with a spectrophotometer to create an initial inoculum concentration of approximately 1×10^8 cfu/mL. The inoculum was diluted 1:250 to a final concentration of 2-8×10^5 cfu/mL, which was confirmed by performing a Total Viability Count (TVC). The TVC consisted of plating a 1:1000 dilution of the final inoculum on nonselective media and was also used to confirm the health and purity of the inoculum in each trial.
(§3) Lyophilized 80 μg peptide aliquots synthesized by GenScript (Piscataway, NJ, USA) were resuspended to 1.28 mg/mL with UltraPure water (Thermo Fisher Scientific, Waltham, MA, USA) and serially diluted in polypropylene 96-well microtiter plates (Greiner Bio-One #650261, Kremsmunster, Austria) from 128 down to 0.5 μg/mL. Two columns per plate were reserved for growth and sterility controls. Inoculum was added to the wells containing the peptide and the growth control. Plates were incubated for 20-24 h at 37° C. The minimum inhibitory concentration (MIC) was determined as the lowest peptide concentration where there was no visible bacterial growth.

E. coli ATCC 25922 = format: cell-based, Escherichia coli; conditions: ATCC 25922
Experimental: as §1, §2, §3

[1] = system: Salmonella enterica serovar Enteritidis (human clinical isolate); format: cell-based; conditions: serovar Enteritidis (human clinical isolate)
Experimental: as §1, §2, §3

CC(C)[C@H](N)C(=O)N[C@@H](CCCCN)C(=O)N[C@@H](CS)C(=O)N[C@@H](CCCNC(=N)N)C(=O)N[C@H](C(=O)N[C@@H](CCCNC(=N)N)C(=O)N[C@@H](CCCNC(=N)N)C(=O)O)C(C)C [ApMe1, VKCRVRR] (H-VKCRVRR-OH; N-terminus and C-terminus assumed)
>128/>128/>128 ug/mL: MIC (ug/mL) S. aureus (S. aureus ATCC 29213) | MIC (ug/mL) E. coli (E. coli ATCC 25922) | MIC (ug/mL) S. Enteritidis [1]

CC(C)C[C@H](NC(=O)[C@H](C)NC(=O)[C@@H](NC(=O)[C@H](CC(=O)O)NC(=O)[C@H](CCCNC(=N)N)NC(=O)[C@H](CCCCN)NC(=O)[C@H](Cc1ccccc1)NC(=O)[C@@H](NC(=O)[C@H](CCC(=O)O)NC(=O)[C@H](CCCCN)NC(=O)[C@H](Cc1c[nH]cn1)NC(=O)[C@H](C)NC(=O)CN)C(C)C)[C@@H](C)O)C(=O)N[C@H](C(=O)N[C@@H](CCCCN)C(=O)N[C@@H](CCC(=O)O)C(=O)N[C@@H](C)C(=O)N[C@@H](C)C(=O)N[C@@H](CCCCN)C(=O)N[C@@H](CCCCN)C(=O)N[C@@H](C)C(=O)N[C@@H](CCCCN)C(=O)N[C@@H](CCCCN)C(=O)O)[C@@H](C)O [ApMe2] (H-GAHKEVFKRDTALTKEAAKKAKK-OH; N-terminus and C-terminus assumed)
>128/>128/>128 ug/mL: MIC (ug/mL) S. aureus (S. aureus ATCC 29213) | MIC (ug/mL) E. coli (E. coli ATCC 25922) | MIC (ug/mL) S. Enteritidis [1]

CC[C@H](C)[C@H](NC(=O)[C@H](CC(C)C)NC(=O)CNC(=O)[C@H](Cc1c[nH]c2ccccc12)NC(=O)CN)C(=O)N[C@@H](CC(N)=O)C(=O)N[C@H](C(=O)N[C@@H](CCCCN)C(=O)N[C@H](C(=O)N1CCC[C@H]1C(=O)N1CCC[C@H]1C(=O)N[C@H](C(=O)N[C@@H](CC(C)C)C(=O)N[C@@H](Cc1c[nH]cn1)C(=O)N[C@@H](CCCCN)C(=O)N[C@H](C(=O)N[C@@H](CO)C(=O)N[C@H](C(=O)N1CCC[C@H]1C(=O)N[C@@H](CC(C)C)C(=O)N[C@H](C(=O)N[C@@H](CO)C(=O)N[C@@H](CCCCN)C(=O)N[C@@H](CCCNC(=N)N)C(=O)O)C(C)C)C(C)C)C(C)C)C(C)C)[C@@H](C)CC)[C@@H](C)CC [ApMe3] (H-GWGLINIKIPPVLHKVSVPLVSKR-OH; N-terminus and C-terminus assumed)
>128/>128/>128 ug/mL: MIC (ug/mL) S. aureus (S. aureus ATCC 29213) | MIC (ug/mL) E. coli (E. coli ATCC 25922) | MIC (ug/mL) S. Enteritidis [1]

CC[C@H](C)[C@H](NC(=O)[C@H](CC(C)C)NC(=O)[C@H](CO)NC(=O)[C@H](CCCCN)NC(=O)[C@H](CC(C)C)NC(=O)[C@@H](NC(=O)[C@H](Cc1ccc(O)cc1)NC(=O)[C@H](CCCNC(=N)N)NC(=O)[C@H](CCCNC(=N)N)NC(=O)[C@H](Cc1c[nH]cn1)NC(=O)[C@H](CCCNC(=N)N)NC(=O)[C@H](CCC(=O)O)NC(=O)[C@H](Cc1c[nH]cn1)NC(=O)[C@H](CCCNC(=N)N)NC(=O)[C@H](CC(C)C)NC(=O)[C@H](CCCCN)NC(=O)[C@@H](NC(=O)[C@H](Cc1c[nH]cn1)NC(=O)[C@H](Cc1c[nH]cn1)NC(=O)[C@H](Cc1c[nH]cn1)NC(=O)[C@@H](N)CCCCN)[C@@H](C)CC)[C@@H](C)CC)C(=O)O [ApMe4] (H-KHHHIKLRHERHRRYILKSLI-OH; N-terminus and C-terminus assumed)
>128/>128/>128 ug/mL: MIC (ug/mL) S. aureus (S. aureus ATCC 29213) | MIC (ug/mL) E. coli (E. coli ATCC 25922) | MIC (ug/mL) S. Enteritidis [1]

CC[C@H](C)[C@H](NC(=O)[C@@H](N)CO)C(=O)N[C@@H](CC(C)C)C(=O)N[C@@H](CO)C(=O)N[C@H](C(=O)N[C@@H](CC(C)C)C(=O)N[C@@H](CO)C(=O)N[C@@H](Cc1c[nH]cn1)C(=O)N[C@@H](CCCCN)C(=O)N[C@@H](CCCNC(=N)N)C(=O)O)[C@@H](C)O [ApMe5, SILSTLSHKR] (H-SILSTLSHKR-OH; N-terminus and C-terminus assumed)
>128/>128/>128 ug/mL: MIC (ug/mL) S. aureus (S. aureus ATCC 29213) | MIC (ug/mL) E. coli (E. coli ATCC 25922) | MIC (ug/mL) S. Enteritidis [1]

CC[C@H](C)[C@H](NC(=O)[C@H](CCCCN)NC(=O)[C@H](CCCNC(=N)N)NC(=O)[C@H](C)NC(=O)[C@@H](N)CCCNC(=N)N)C(=O)N[C@@H](CCCNC(=N)N)C(=O)N[C@@H](CCCNC(=N)N)C(=O)N[C@@H](CCCNC(=N)N)C(=O)N[C@@H](CCCNC(=N)N)C(=O)NCC(=O)N[C@@H](CO)C(=O)N[C@@H](CC(C)C)C(=O)N[C@@H](CCCNC(=N)N)C(=O)N[C@@H](Cc1c[nH]cn1)C(=O)N[C@@H](CS)C(=O)N[C@H](C(=O)N[C@H](C(=O)N[C@H](C(=O)N1CCC[C@H]1C(=O)N[C@@H](CO)C(=O)N[C@H](C(=O)N1CCC[C@H]1C(=O)N[C@@H](CO)C(=O)NCC(=O)N[C@@H](CCCNC(=N)N)C(=O)O)[C@@H](C)O)[C@@H](C)CC)[C@@H](C)O)C(C)C [ApMe6] (H-RARKIRRRRGSLRHCVTIPSTPSGR-OH; N-terminus and C-terminus assumed)
>128/>128/>128 ug/mL: MIC (ug/mL) S. aureus (S. aureus ATCC 29213) | MIC (ug/mL) E. coli (E. coli ATCC 25922) | MIC (ug/mL) S. Enteritidis [1]

CC(C)[C@H](NC(=O)[C@H](CCCCN)NC(=O)CNC(=O)[C@H](C)NC(=O)CNC(=O)[C@H](C)NC(=O)[C@H](C)N)C(=O)N[C@H](C(=O)N[C@@H](CCCCN)C(=O)N[C@@H](CO)C(=O)N[C@@H](C)C(=O)N[C@@H](CCC(N)=O)C(=O)N[C@@H](CCCCN)C(=O)N[C@@H](C)C(=O)N[C@@H](CCC(N)=O)C(=O)N[C@@H](CCCCN)C(=O)N[C@@H](C)C(=O)N[C@@H](CCCCN)C(=O)O)[C@@H](C)O [BoAr1, AAGAGKVTKSAQKAQKAK] (H-AAGAGKVTKSAQKAQKAK-OH; N-terminus and C-terminus assumed)
>128/>128/>128 ug/mL: MIC (ug/mL) S. aureus (S. aureus ATCC 29213) | MIC (ug/mL) E. coli (E. coli ATCC 25922) | MIC (ug/mL) S. Enteritidis [1]

CC[C@H](C)[C@H](NC(=O)[C@H](CCCCN)NC(=O)[C@H](CC(C)C)NC(=O)[C@H](Cc1c[nH]c2ccccc12)NC(=O)[C@@H]1CCCN1C(=O)[C@H](Cc1c[nH]cn1)NC(=O)[C@H](CCCCN)NC(=O)[C@H](CC(C)C)NC(=O)[C@H](CS)NC(=O)[C@H](CCC(=O)O)NC(=O)[C@H](C)NC(=O)[C@H](C)NC(=O)[C@@H](NC(=O)[C@H](C)N)[C@@H](C)O)C(=O)N[C@@H](CCCCN)C(=O)N[C@@H](CCCCN)C(=O)O [BoAr2, ATAAECLKHPWLKIKK] (H-ATAAECLKHPWLKIKK-OH; N-terminus and C-terminus assumed)
>128/>128/>128 ug/mL: MIC (ug/mL) S. aureus (S. aureus ATCC 29213) | MIC (ug/mL) E. coli (E. coli ATCC 25922) | MIC (ug/mL) S. Enteritidis [1]

CC[C@H](C)[C@H](N)C(=O)N[C@H](C(=O)N[C@@H](CCCNC(=N)N)C(=O)N[C@@H](C)C(=O)N[C@H](C(=O)N[C@@H](C)C(=O)N[C@@H](C)C(=O)N[C@@H](CCC(=O)O)C(=O)N[C@@H](CS)C(=O)N[C@@H](CC(C)C)C(=O)N[C@@H](CCCCN)C(=O)N[C@@H](Cc1c[nH]cn1)C(=O)N1CCC[C@H]1C(=O)N[C@@H](Cc1c[nH]c2ccccc12)C(=O)N[C@@H](CC(C)C)C(=O)N[C@@H](CCCCN)C(=O)N[C@H](C(=O)N[C@@H](CCCCN)C(=O)N[C@@H](CCCCN)C(=O)O)[C@@H](C)CC)[C@@H](C)O)[C@@H](C)CC [BoAr3, IIRATAAECLKHPWLKIKK] (H-IIRATAAECLKHPWLKIKK-OH; N-terminus and C-terminus assumed)
>128/>128/>128 ug/mL: MIC (ug/mL) S. aureus (S. aureus ATCC 29213) | MIC (ug/mL) E. coli (E. coli ATCC 25922) | MIC (ug/mL) S. Enteritidis [1]

CC(C)C[C@H](NC(=O)[C@H](CO)NC(=O)[C@H](C)NC(=O)[C@@H](NC(=O)[C@@H](N)CO)C(C)C)C(=O)N[C@@H](C)C(=O)N[C@@H](CCCCN)C(=O)N[C@@H](CC(N)=O)C(=O)N[C@@H](CO)C(=O)N[C@@H](C)C(=O)N[C@@H](Cc1c[nH]c2ccccc12)C(=O)N1CCC[C@H]1C(=O)N[C@H](C(=O)N[C@@H](CO)C(=O)N[C@@H](CC(C)C)C(=O)N[C@@H](CCCCN)C(=O)N[C@@H](CCCNC(=N)N)C(=O)O)C(C)C [BoAr4, SVASLAKNSAWPVSLKR] (H-SVASLAKNSAWPVSLKR-OH; N-terminus and C-terminus assumed)
>128/>128/>128 ug/mL: MIC (ug/mL) S. aureus (S. aureus ATCC 29213) | MIC (ug/mL) E. coli (E. coli ATCC 25922) | MIC (ug/mL) S. Enteritidis [1]

CC[C@H](C)[C@H](NC(=O)[C@H](CO)NC(=O)[C@@H](NC(=O)[C@@H](NC(=O)[C@@H](N)C(C)C)[C@@H](C)O)[C@@H](C)CC)C(=O)N[C@@H](C)C(=O)N[C@@H](CCCNC(=N)N)C(=O)N[C@@H](CCCNC(=N)N)C(=O)N[C@H](C(=O)N[C@@H](CO)C(=O)N[C@@H](CO)C(=O)N[C@@H](Cc1c[nH]cn1)C(=O)N[C@@H](CCCCN)C(=O)N[C@@H](CCCNC(=N)N)C(=O)NCC(=O)O)C(C)C [BoAr5, VTISIARRVSSHKRG] (H-VTISIARRVSSHKRG-OH; N-terminus and C-terminus assumed)
>128/>128/>128 ug/mL: MIC (ug/mL) S. aureus (S. aureus ATCC 29213) | MIC (ug/mL) E. coli (E. coli ATCC 25922) | MIC (ug/mL) S. Enteritidis [1]
